The subject of test [1] is MCL-1. Description: MCL-1 expression by western blotting in MV4-11 cells. Type of test: cell-based. The protocol:
An AML cell line, MV-4-11, expresses MCL-1. MCL-1 is a key anti-apoptotic protein in MV-4-11 cells. Alvocidib, a CDK9 inhibitor, lowers the expression of MCL-1, which is already well documented in the literature. Alvocidib down-regulates MCL-1 in a dose dependent manner (FIG. 1A). The dose dependence is observed by monitoring the relative expression of MCL-1 compared to β-actin when cells are dosed with alvocidib at concentrations of 0-8 μM. MV4-11 cells were treated with Alvocidib for 16 hrs in vitro, Following treatment, cells were harvested and prepared using standard western blotting technique for immuno-detection of MCL-1 and β-actin expression.
In addition, alvocidib also down-regulates MCL-1 in a time-dependent manner (FIG. 1B). The time dependence is observed by monitoring the relative expression of MCL-1 compared top-actin over time. The relative expression of MCL-1 was measured at 0.5-48 hour time points after dosing with 80 nM of alvocidib.
MV4-11 cells were treated with 80 nM Alvocidib in vitro for the times indicated. Following treatment, cells were harvested and prepared using standard western blotting technique for immunodetection of MCL-1 and β-actin expression.

Test [2] deals with MV 4-11 cells. Nature of the test: Cell viability, Cell titer-glo assay. The test is classed as cell-based. As to conditions: for EC50: Homo sapiens, MV4-11, MV 4-11 cells, wash. As to the method:
MV 4-11 cells were dosed first with alvocidib (80 nM) or DMSO for 24 hours followed by a wash step. Following the wash step, the cells were dosed with azacitidine (30 μM to 0.001 μM) for an additional 72 hours, Measurement of cell viability was taken at 96 hours from the initial dose (72 hours after the wash step) and normalized to data collected for cells dosed with alvocidib only. Cell viability was then assessed in a Cell titer-glo assay, according to manufacturer protocol. Cell viability was then plotted against concentration on a logarithmic scale (FIG. 2).
FIGS. 5A and 5B present data from combination treatment of Alvocidib and decitabine in MV4-11 cells. MV4-11 cells were first treated for 96 hours with alvocidib+decitabine according to the general procedures of Example 2 at the concentrations indicated in FIG. 5A. […] Here, a change of nearly 10-fold in the IC50 (μM) of decitabine with the addition of alvocidib (100 nM) was observed when alvocidib was administered prior to decitabine.
A general note: In ATP-based viability assays light output follows the ATP content of the culture.

As to `CN1CC[C@H](c2c(O)cc(O)c3c(=O)cc(-c4ccccc4Cl)oc23)[C@H](O)C1` [Alvocidib], the “MCL-1 expression compared to β-actin” value in test [1] (80 nM, 1 hour post-treatment) is listed as “reduced MCL-1 expression”; in test [1] (80 nM, 16 hrs), “nearly completely blocked”; in test [1] (80 nM, up to 48 hours following treatment), “inhibition of expression was maintained”; in test [1] (0.1 μM, 16 hrs) it was “reduced MCL-1 expression”; in test [1] (1 μM, 16 hrs), “completely blocked expression”.
Usually EC50 stands for the concentration that produces a half-maximal response. As for `Nc1ncn([C@@H]2O[C@H](CO)[C@@H](O)[C@H]2O)c(=O)n1` [azacitidine], the EC50 in test [2] (DMSO 24 hours, then azacitidine only 72 hours) came to 1.78 µM; in test [2] (alvocidib 80 nM 24 hours, then azacitidine 72 hours, normalized to alvocidib only) it was 0.641 µM.
Regarding `Nc1ncn([C@H]2C[C@H](O)[C@@H](CO)O2)c(=O)n1` [decitabine], the “Change in IC50 of decitabine with the addition of alvocidib” value in test [2] (MV4-11 cells, alvocidib 100 nM 24 hours pre-treatment, then decitabine 72 hours) is around 10 fold.

Values taken from patent publication US10835537B2, “Combination therapies for treatment of cancer” (Sumitomo Dainippon Pharma Oncology, Inc., priority 2015, dated 2020).
